# According to patent US20260226048A1, “MULTI-CYCLIC IRAK AND FLT3 INHIBITING COMPOUNDS AND USES THEREOF” (CHILDREN'S HOSPITAL MEDICAL CENTER, priority 2023, published 2026):
# Where a chain is given by its changes, count along the chain named.
# Columns and labels:
# FLT3 ITD = target: T1, FLT3 ITD (Homo sapiens, UniProt P36888); assay: DiscoverX KINOMEscan competition binding assay, FLT3 ITD; settings: 11-point 3-fold dilution
# T1 construct: fused on or other part: DNA tag for qPCR detection (kinase-tagged T7 phage, or made in HEK-293 cells and then tagged with DNA)
# T1 sequence (P36888 1-993): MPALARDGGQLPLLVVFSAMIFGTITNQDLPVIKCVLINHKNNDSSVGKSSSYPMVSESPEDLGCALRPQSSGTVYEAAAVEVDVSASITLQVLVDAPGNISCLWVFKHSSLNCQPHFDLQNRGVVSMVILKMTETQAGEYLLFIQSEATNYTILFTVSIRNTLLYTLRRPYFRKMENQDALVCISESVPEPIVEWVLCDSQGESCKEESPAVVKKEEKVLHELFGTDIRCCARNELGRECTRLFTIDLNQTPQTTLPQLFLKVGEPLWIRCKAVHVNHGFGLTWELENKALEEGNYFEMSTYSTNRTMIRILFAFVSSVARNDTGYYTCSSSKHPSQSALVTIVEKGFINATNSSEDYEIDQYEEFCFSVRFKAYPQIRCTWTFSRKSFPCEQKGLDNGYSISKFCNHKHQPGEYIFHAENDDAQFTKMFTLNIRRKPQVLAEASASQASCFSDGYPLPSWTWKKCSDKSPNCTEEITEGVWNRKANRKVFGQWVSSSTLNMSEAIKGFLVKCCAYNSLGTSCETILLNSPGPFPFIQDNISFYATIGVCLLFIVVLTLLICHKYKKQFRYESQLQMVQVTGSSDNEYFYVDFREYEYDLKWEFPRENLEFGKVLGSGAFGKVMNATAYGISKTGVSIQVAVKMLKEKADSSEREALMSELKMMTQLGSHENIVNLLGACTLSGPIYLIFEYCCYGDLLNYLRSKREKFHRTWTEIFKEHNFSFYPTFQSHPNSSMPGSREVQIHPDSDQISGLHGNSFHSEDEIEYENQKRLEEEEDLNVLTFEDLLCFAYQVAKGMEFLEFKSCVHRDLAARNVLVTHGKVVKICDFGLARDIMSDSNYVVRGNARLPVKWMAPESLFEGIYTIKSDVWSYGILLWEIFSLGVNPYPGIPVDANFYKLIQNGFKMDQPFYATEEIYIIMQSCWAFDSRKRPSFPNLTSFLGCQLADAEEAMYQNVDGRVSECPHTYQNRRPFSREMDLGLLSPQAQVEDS
# From the text: (§1) […]. […] As a result, the data report thermodynamic interaction affinities (Kd values), rather than IC50 values that are dependent on ATP concentrations. The assay uses a DNA-tagged version of the protein kinase, and an immobilized ligand bound to a solid support. Compounds that directly or indirectly prevent kinase binding to the immobilized ligand reduce the amount of kinase captured on the solid support, which is detected using an ultra-sensitive qPCR method. Affinity constants reported from the assay have been reported to be independent of the immobilized ligand used that is coupled to the solid support (See supplemental information in Fabian, M. A. et. al., (2005) Nat. Biotechnol. 23, 329-336; Wodicka, L. M. et. al., (2010) Chem. Biol. 17, 1241-1249.)
# (§2) Kinase-tagged T7 phage strains were prepared in an E. coli host derived from the BL21 strain. E. coli were grown to log-phase and infected with T7 phage and incubated with shaking at 32° C. until lysis. The lysates were centrifuged and filtered to remove cell debris. The remaining kinases were produced in HEK-293 cells and subsequently tagged with DNA for qPCR detection. Streptavidin-coated magnetic beads were treated with biotinylated small molecule ligands for 30 minutes at room temperature to generate affinity resins for kinase assays. The liganded beads were blocked with excess biotin and washed with blocking buffer (SeaBlock (Pierce), 1% BSA, 0.05% Tween 20, 1 mM DTT) to remove unbound ligand and to reduce non-specific binding. […] Test compounds were prepared as 111× stocks in 100% DMSO. Kds were determined using an 11-point 3-fold compound dilution series with three DMSO control points. All compounds for Kd measurements are distributed by acoustic transfer (non-contact dispensing) in 100% DMSO. The compounds were then diluted directly into the assays such that the final concentration of DMSO was 0.9%. All reactions were performed in polypropylene 384-well plates. Each was a final volume of 0.02 mL. […] The kinase concentration in the eluates was measured by qPCR.
# (§3) Binding constants (Kds) were calculated with a standard dose-response curve using the Hill equation. The Hill Slope was set to −1. Curves were fitted using a non-linear least square fit with the Levenberg-Marquardt algorithm.
# FLT3 ITD, D835V = target: T2, FLT3 ITD, D835V (Homo sapiens, UniProt P36888, D835V, form not given); assay: DiscoverX KINOMEscan competition binding assay, FLT3 ITD, D835V; settings: 11-point 3-fold dilution
# T2 construct: fused on or other part: DNA tag for qPCR detection (kinase-tagged T7 phage, or made in HEK-293 cells and then tagged with DNA)
# T2 sequence (P36888 1-993 D835V): T1 sequence (P36888 1-993) with D835V
# From the text: as §1, §2, §3
SMILES,Kd (FLT3 ITD) [nM],"Kd (FLT3 ITD, D835V) [nM]"
"COc1cc2ncc(-c3nc(N[C@H]4CNCC[C@@H]4F)ncc3F)n2nc1C1CC1 [Compound 1a, 4-(6-cyclopropyl-7-methoxyimidazo[1,2-b]pyridazin-3-yl)-5-fluoro-N-((3S,4S)-4-fluoropiperidin-3-yl)pyrimidin-2-amine]",0.21,< 0.17
"FC(F)COc1cc2ncc(-c3ccnc(N[C@H]4CNCC[C@@H]4F)n3)n2nc1C1CC1 [Compound 4a, 4-(6-cyclopropyl-7-(2,2-difluoroethoxy)imidazo[1,2-b]pyridazin-3-yl)-N-((3 S,4S)-4-fluoropiperidin-3-yl)pyrimidin-2-amine]",1.7,< 0.17
"COc1cc2ncc(-c3nc(N[C@H]4CNCC[C@@H]4F)ncc3F)n2nc1C(C)(C)O [Compound 45a, 2-(3-(5-fluoro-2-(((3S,4S)-4-fluoropiperidin-3-yl)amino)pyrimidin-4-yl)-7-methoxyimidazo[1,2-b]pyridazin-6-yl)propan-2-ol]",< 0.17,0.23
"CC(C)(O)c1ccc2ncc(-c3nc(N[C@H]4CNCC[C@@H]4F)ncc3F)n2c1 [Compound 46a, 2-(3-(5-fluoro-2-(((3S,4S)-4-fluoropiperidin-3-yl)amino)pyrimidin-4-yl)imidazo[1,2-a]pyridin-6-yl)propan-2-ol]",0.19,< 0.17
"COc1cc2ncc(-c3nc(N[C@H]4CNCC[C@@H]4F)ncc3F)n2nc1C1COC1 [Compound 92a, 5-fluoro-N-((3S,4S)-4-fluoropiperidin-3-yl)-4-(7-methoxy-6-(oxetan-3-yl)imidazo[1,2-b]pyridazin-3-yl)pyrimidin-2-amine]",0.21,< 0.17
"CC(C)(O)c1cn2c(-c3nc(N[C@H]4CNCC[C@@H]4F)ncc3F)cnc2cn1 [Compound 100a, 2-(3-(5-fluoro-2-(((3S,4S)-4-fluoropiperidin-3-yl)amino)pyrimidin-4-yl)imidazo[1,2-a]pyrazin-6-yl)propan-2-ol]",2.7,0.19
"COc1cc2ncc(-c3nc(N[C@H]4CNCC[C@@H]4F)ncc3F)n2nc1N1CCCS1(=O)=O [Compound 112a, 2-(3-(5-fluoro-2-(((3S,4S)-4-fluoropiperidin-3-yl)amino)pyrimidin-4-yl)-7-methoxyimidazo[1,2-b]pyridazin-6-yl)isothiazolidine 1,1-dioxide]",0.2,< 0.17
